{
  "source": "paper PMC10041525",
  "about": "“New Dual Inhibitors of Bacterial Topoisomerases with Broad-Spectrum Antibacterial Activity and In Vivo Efficacy against Vancomycin-Intermediate Staphylococcus aureus” (Journal of Medicinal Chemistry, 2023)",
  "key": {"E. coli ATCC 25922": {"system": "E. coli ATCC 25922", "set-up": "method as in earlier work", "conditions": "QC range for E. coli ATCC 25922, ref CLSI; cited from earlier work"}, "[1]": {"system": "N. gonorrhoeae ATCC 49226", "experiment": "IHMA QC MIC", "assay_type": "cell-based", "conditions": "Neisseria gonorrhoeae, ATCC49226; QC strain N. gonorrhoeae ATCC 49226, test date 2021-11-18; read-out: MIC", "from_the_text": "Supplement jm2c01905_si_004.xlsx, sheet \"QC\" | column: MIC [µg/mL]"}, "S. pneumoniae ATCC 49619": {"system": "S. pneumoniae ATCC 49619", "set-up": "method as in earlier work", "conditions": "QC range for S. pneumoniae ATCC 49619, ref CLSI; cited from earlier work"}, "H. influenzae ATCC 49247": {"system": "H. influenzae ATCC 49247", "set-up": "method as in earlier work", "conditions": "QC range for H. influenzae ATCC 49247, ref CLSI; cited from earlier work"}, "[2]": {"system": "Neisseria gonorrhoeae (n = 12)", "experiment": "MIC broth microdilution at IHMA Europe", "assay_type": "cell-based", "conditions": "for MIC: Neisseria gonorrhoeae, read-out: MIC"}, "[3]": {"system": "N. gonorrhoeae ATCC 49226", "set-up": "method as in earlier work", "conditions": "QC range for N. gonorrhoeae ATCC 49226, ref CLSI; cited from earlier work"}},
  "note": "Where two headings read alike, the source gives them in different places.",
  "data": [
    {"compound": "COCC1=C(C(=O)O)N2C(=O)[C@@H](NC(=O)/C(=N\\OC)c3csc(N)n3)[C@H]2SC1", "note": "[Cefpodoxime, cefpodoxime]", "values": [
      {"measurement": "MIC, CLSI Range", "setting": "E. coli ATCC 25922", "value": "0,25 - 1 µg/mL"},
      {"measurement": "MIC", "setting": "[1]", "value": 0.06, "unit": "µg/mL"},
      {"measurement": "MIC, CLSI Range", "setting": "S. pneumoniae ATCC 49619", "value": "0,03 - 0,12 µg/mL"},
      {"measurement": "MIC, CLSI Range", "setting": "H. influenzae ATCC 49247", "value": "0,25 - 1 µg/mL"},
      {"measurement": "Cumulative % at MIC", "setting": "[2]; MIC 0.015 µg/mL", "value": 8.3, "unit": "%"},
      {"measurement": "No. of isolates at MIC", "setting": "[2]; MIC 0.015 µg/mL", "value": 1},
      {"measurement": "Cumulative % at MIC", "setting": "[2]; MIC 0.03 µg/mL", "value": 16.7, "unit": "%"},
      {"measurement": "No. of isolates at MIC", "setting": "[2]; MIC 0.03 µg/mL", "value": 1},
      {"measurement": "Cumulative % at MIC", "setting": "[2]; MIC 0.06 µg/mL", "value": 41.7, "unit": "%"},
      {"measurement": "No. of isolates at MIC", "setting": "[2]; MIC 0.06 µg/mL", "value": 3},
      {"measurement": "Cumulative % at MIC", "setting": "[2]; MIC 0.5 µg/mL", "value": 66.7, "unit": "%"},
      {"measurement": "No. of isolates at MIC", "setting": "[2]; MIC 0.5 µg/mL", "value": 1},
      {"measurement": "Cumulative % at MIC", "setting": "[2]; MIC 1 µg/mL", "value": 83.3, "unit": "%"},
      {"measurement": "No. of isolates at MIC", "setting": "[2]; MIC 1 µg/mL", "value": 2},
      {"measurement": "Cumulative % at MIC", "setting": "[2]; MIC 2 µg/mL", "value": 100.0, "unit": "%"},
      {"measurement": "No. of isolates at MIC", "setting": "[2]; MIC 2 µg/mL", "value": 2},
      {"measurement": "Cumulative % at MIC", "setting": "[2]; MIC […]", "value": 58.3, "unit": "%"},
      {"measurement": "No. of isolates at MIC", "setting": "[2]; MIC […]", "value": 2},
      {"measurement": "MIC", "setting": "[2]; isolate IHMA 1123853", "value": 1, "unit": "µg/mL"},
      {"measurement": "MIC", "setting": "[2]; isolate IHMA 1130935", "value": 0.03, "unit": "µg/mL"},
      {"measurement": "MIC", "setting": "[2]; isolate IHMA 1130989", "value": 0.015, "unit": "µg/mL"},
      {"measurement": "MIC", "setting": "[2]; isolate IHMA 1130991", "value": 1, "unit": "µg/mL"},
      {"measurement": "MIC", "setting": "[2]; isolate IHMA 1137292", "value": 0.5, "unit": "µg/mL"},
      {"measurement": "MIC", "setting": "[2]; isolate IHMA 1145734", "value": 0.25, "unit": "µg/mL"},
      {"measurement": "MIC", "setting": "[2]; isolate IHMA 1145735", "value": 0.06, "unit": "µg/mL"},
      {"measurement": "MIC", "setting": "[2]; isolate IHMA 1165897", "value": 0.06, "unit": "µg/mL"},
      {"measurement": "MIC", "setting": "[2]; isolate IHMA 1194748", "value": 0.06, "unit": "µg/mL"},
      {"measurement": "MIC", "setting": "[2]; isolate IHMA 1194750", "value": 0.25, "unit": "µg/mL"},
      {"measurement": "MIC", "setting": "[2]; isolate IHMA 1546199", "value": 2, "unit": "µg/mL"},
      {"measurement": "MIC", "setting": "[2]; isolate IHMA 1546215", "value": 2, "unit": "µg/mL"},
      {"measurement": "MIC, CLSI Range", "setting": "[3]", "value": "0,03 - 0,12 µg/mL"}
    ]}
  ]
}
